The text below walks through data of US7943338B2, “Autoimmune conditions and NADPH oxidase defects” (Arexis AB, priority 2002, dated 2011).

One series concerns mice. The settings on record: daily intraperitoneal 2.8 μmol/kg (880 μg/kg); cited from earlier work.
For the next series, the system named is DA and DA.E3chr12 rats. The following applies: PIA. As to the method: Arthritic development was monitored in all limbs using a macroscopic scoring system. Briefly, 1 point was given for each swollen or red toe, 1 point for each swollen midfoot, digit, or knuckle, and 5 points for a swollen ankle. The maximum score for a limb was 15 points, and the maximum score for a rat was 60 points.
For administration, 50 mg of DPI was dissolved in 250 mL DMSO/PBS. About 0.5 mL was injected intraperitoneally into rats on day 0, 2, 3, 4, 5, 6, 7, 8, 10, 12, 14, 17, 19, and 21.
Arthritis development was monitored in all limbs.

Another series concerns DA rats. The series can be described thus: Arthritis-inducing effect of oils injected intradermally at the base of the tail. The following applies: oil injected intradermally at base of tail, scored days 12-31, FIG. 10. It is filed as in vivo, Rat (Rattus norvegicus). The source says:
The arthritis-inducing effects of the oils was examined by injecting the oils intradermally into DA rats. […] Note that p<0.05 for alkanes shorter than C15 compared to C19. All statistics evaluated with student's t-test. N=4 for all groups.

For a further series, the system named is NADPH complex. As to the kind of experiment: Oxygen burst studies, activation of NADPH complex (cell type not stated). It is filed as cell-based. The settings on record: oxygen burst studies / WST-1 assay. As to the method:
The unsaturated fatty acids C14:1-C24:1 (myristoleic acid, palmitoleic acid, oleic acid, linoleic acid, linolenic acid, 11c-eicosenoic acid, arachidonic acid, erucic acid, and neuronic acid) and squalenee (Sigma) were also tested.
10 μL of each of the oils to be tested was added with 9 μL of WST1 to the wells of a 96 well microtitre plate. 10^6 cells/mL (100 μL of 10^7 cells/mL) were added to each well and the color change measured in a spectrophotometer at 450 nm at 37° for 60 minutes (one measurement/min).
10 μL each of the oils to be tested were added to the wells of a 96 well microtitre plate. 50 μL of cytochrome C (4 mg/mL) and […] (50 μL of 10^7 cells/mL) were added to each well and the absorbance measured in a spectrophotometer at 550 nm at 37° C. for 60 minutes (one measurement/minute).
Background: Formazan colour is commonly taken as a measure of viable cells.

The nature of series [1]: In vivo distribution of 14C-labeled oils. Details: species or system Rat (Rattus norvegicus). As to the method:
[1-14C]-Hexadecane and [1-14C]-Oleic acid were purchased from Amersham. The oils were injected intradermally at the base of the tail in 18 DA rats (200 μL). At day 10, the organs (lymph nodes, spleen, liver and kidney) of three rats from each group were collected. The organs were weighed and homogenized in a total volume of 2 mL PBS and frozen. The same procedure was followed at day 20 and at day 30. 1 mL of the homogenised samples was then added to 10 mL Ready Safe (Beckman) and counted in a beta counter. The distribution of radioactive labelled hexadecane to the lymph nodes was also inspected at earlier time points (day 3, day 6, day 10, and day 13).

As for `c1ccc2c(c1)[I+]c1ccccc1-2` [DPI, diphenyleneiodonium chloride], the reduction of arthritis in the series with mice is recorded as 50%. Besides, the severity of arthritis result with DA and DA.E3chr12 rats (DPI 1.25 μmol/kg i.p. on days 0-21, FIG. 6) is “increased severity of arthritis”. For the same compound, the accumulated arthritis scores entry with DA and DA.E3chr12 rats (DPI-treated vs control rats, FIG. 7) is recorded as “greater accumulated arthritis scores than control rats”.

`CCCCCCCCCCCCCCC` [Pentadecane, pentadecane]: the arthritis induction result with DA rats is reported as “did induce arthritis”. Besides, in the series with NADPH complex, the “activation of the NADPH complex” value is listed as “did not activate the NADPH complex”.

As to `CCCCCCCCCCCCCCCCC` [heptadecane], the arthritis induction result with DA rats is given as “induce arthritis”. Moreover, the “activation of the NADPH complex” value in the series with NADPH complex was “activate the NADPH complex”.

As for `CCCCCCCCCCCCCCCCCC` [octadecane], the arthritis induction result with DA rats was “induce arthritis”. Further, the “activation of the NADPH complex” value with NADPH complex is given as “activate the NADPH complex”.

For the compound `CCCCCCCC/C=C\CCCCCCCC(=O)O` [oleic acid], in series [1] (200 μL i.d. at base of tail, DA rats, FIG. 13), the “arthritis in rats treated with radioactively-labeled oils” value was “does not induce arthritis”. For the same compound, in series [1] (hexadecane compared with oleic acid), the “extent of distribution to the lymph nodes” value is “not distributed to the lymph nodes to as high an extent as the hexadecane”.
